Laboratory results reported in PMC6290023 (Scientific Reports, 2018).
Peptide text beside a SMILES is read from it.

What was measured:
[1] = Stability of MHP1 in mouse serum (HPLC/MS); format: in vitro ADME; conditions: mouse (CD-1(ICR)) serum, 200 μg/mL MHP1, 37 °C, HPLC UV 210 nm, mean ± SD
Method: Mouse (CD-1(ICR)) serum was obtained from KAC (Kyoto, Japan) and stored below −15 °C until use. MHP1 (2 mg/mL in ultrapure water) was spiked in mouse serum on ice to obtain a final concentration of 200 μg/mL. The serum was incubated at 37 °C and aliquots of the reaction mixture collected at the incubation times 0, 10, 30, and 60 min. Each aliquot was deproteinized with the addition of an ice-cold solvent (acetonitrile: methanol: acetic acid = 500:500:1). The mixtures were left at −20 °C for 20 minutes and stored on ice. After the addition of 1% acetic acid, the mixture was vigorously vortexed and centrifuged (12000 × g, 4 °C, 10 min). The supernatant was injected into the HPLC system and analyzed by reversed-phase chromatography with a water–acetonitrile (0.1% trifluoroacetic acid) linear gradient elution. MHP1 was detected by ultraviolet light at 210 nm.

LPS-stimulated MG6 cells = conditions: peptide incubated at 37 °C for 24 h; cited from earlier work
Method: This might be a result of the key sequence of MHP1 being preserved owing to N-terminus acetylation, which generally makes the peptide resistant to protease degradation. The difference in causing sedimentation at 37 °C for 24 h between MHP1-Ac and MHP1-AcN was dependent on the existence of C-terminal amidation, which has been reported to promote the stabilization of the secondary structure of the peptide.

TLR2, 7, 8 = conditions: cited from earlier work
Description: (§1) To solve this problem, we developed a novel peptide “microglial healing peptide1 (MHP1)”, which is a partial peptide of RANKL, to inhibit […] inflammation without activating osteoclast. The binding sites of RANKL for its receptor RANK responsible for osteoclastogenesis were not included in the MHP1 sequence, but other binding sites that are unrelated to osteoclastogenesis (DE and EF loops) were included. […] The sequence of MHP1 is “[…]” and we demonstrat ...

[2] = test system: mouse osteoclast precursor cells; conditions: cited from earlier work
Description: as §1

tMCAo model in mice = conditions: cited from earlier work
Method: As we have previously shown that intravenous injection of MHP1 (150 μL, 2 mg/ml), started from 6 hrs after tMCAo and followed by subcutaneous injection with Alzet pump (200 μL, 2 mg/ml) for 24 h, is effective, we studied whether a lower dose of MHP1-AcN was effective in reducing ischemic injury.

[3] = test system: FeCl3-induced thrombosis model in CCA; assay: FeCl3-induced thrombosis model in CCA, thrombolysis with tPA; format: in vivo; conditions: mouse, tPA 10 mg/kg 30 min post-CCA occlusion
Method: The ischemic damage was evaluated at 48 h after MCAo in sections stained with cresyl violet. Coronal sections (12 μm thickness) were made at −1.4, −0.7, 0, 0.7 and 1.4 mm from the bregma, mounted on the stereomicroscope and photographed. The volume of the infarct was calculated by the sum of each area of all sections corrected by cerebral edema and multiplied by the thickness of the slices. In the experiment of tPA-induced hemorrhage, PE10-catheter was placed in the right internal jugular vein at 6 h after ischemia. The nylon suture was then removed and 10% of the MHP-AcN mixture (150 µg/mice) and tPA (10 mg/kg) were injected followed by continuous injection of residual mixture of MHP1-AcN and tPA using a syringe pump (UNIVENTOR 400 ANAESTHESIA UNIT, ZTN, MALTA). In the experiment of FeCl3 -induced thrombosis model in CCA, a piece of filter paper soaked in 7.5% FeCl3 was placed on the right CCA for 1 min and it was rinsed with saline. Blood flow was recorded by using a laser speckle blood flow imager (OMEGAZONE OZ-2, OMEGAWAVE, INC., Tokyo, Japan). tPA (10 mg/kg) or mixture of MHP1-AcN (150 μg/mice) and tPA was started to be administered at 30 min after CCA occlusion.

remaining at 10 min, 200 μg/mL ([1]; 10 min, read-out: residual MHP1 remaining intact in mouse serum) [%]	residual MHP1 remaining intact in mouse serum ([1]; 30 min) [%]	remaining at 0.5 h, 200 μg/mL ([1]; 30 min, read-out: residual MHP1 remaining intact in mouse serum) [%]	remaining at 1 h, 200 μg/mL ([1]; 60 min, read-out: residual MHP1 remaining intact in mouse serum) [%]	Molecule	anti-inflammatory effects after incubation at 37 °C for 24 h (LPS-stimulated MG6 cells)	effect on TLR2, 7, 8-induced inflammations (TLR2, 7, 8)	effect on RANKL-induced osteoclast activation [2]	effect on osteoclast activation (peptide alone) [2]	efficacy in tMCAo (tMCAo model in mice; i.v. 150 μL, 2 mg/ml from 6 hrs after tMCAo, then s.c. Alzet pump 200 μL, 2 mg/ml for 24 h)	ischemic injury in tMCAO model (tMCAo model in mice; intracerebroventricularly 4 h, or intravenously 4 or 6 h post-ischemia)	time from tPA application to clot lysis (recanalization) [3]
83 ± 5.9	50.3 ± 3.6	50	27.5 ± 3.2	CC[C@H](C)[C@H](NC(=O)[C@H](CO)NC(=O)[C@@H](NC(=O)[C@H](CCCCN)NC(=O)[C@@H](NC(=O)[C@@H](NC(=O)[C@H](Cc1ccc(O)cc1)NC(=O)[C@@H](NC(=O)[C@H](CCSC)NC(=O)[C@@H](N)CC(C)C)C(C)C)C(C)C)C(C)C)[C@@H](C)O)C(=O)N[C@@H](CCCCN)C(=O)N[C@H](C(=O)N1CCC[C@H]1C(=O)N[C@@H](CO)C(=O)N[C@@H](CO)C(=O)N[C@@H](Cc1c[nH]cn1)C(=O)N[C@@H](CC(N)=O)C(=O)N[C@@H](CC(C)C)C(=O)N[C@@H](CCSC)C(=O)N[C@@H](CCCCN)C(=O)NCC(=O)NCC(=O)N[C@@H](CO)C(=O)N[C@H](C(=O)N[C@@H](CCCCN)C(=O)N[C@@H](CC(N)=O)C(=O)N[C@@H](Cc1c[nH]c2ccccc12)C(=O)N[C@@H](CO)C(=O)NCC(=O)N[C@@H](CC(N)=O)C(=O)O)[C@@H](C)O)[C@@H](C)CC [MHP1] (H-LMVYVVKTSIKIPSSHNLMKGGSTKNWSGN-OH)	loses its anti-inflammatory effects	inhibited	inhibited RANKL-induced osteoclast activation	did not affect osteoclast activation	effective	reduced	–
–	–	–	–	tPA: tissue plasminogen activator, thrombolytic used in acute ischemic stroke	–	–	–	–	–	–	approximately 20 min
